Data from BindingDB's records for doi:10.7270/Q2PR7TCX (The Scripps Research Institute Molecular Screening Center, 2007).
Structures can show the parent of a compound that is named as a salt.

These compounds were tested against Steroidogenic factor 1 (Homo sapiens, UniProt Q13285) (assay: SF-1 inhibitors in Gal4 reporter counter-screen, dose response, counter-screen for RORA inhibitor project, cell-based, CHO-K1, Gal4-SF-1 LBD, luciferase luminescence (AID 611)). Settings: not given.
Sequence of Steroidogenic factor 1 (Q13285 whole entry, the tested form may be a part): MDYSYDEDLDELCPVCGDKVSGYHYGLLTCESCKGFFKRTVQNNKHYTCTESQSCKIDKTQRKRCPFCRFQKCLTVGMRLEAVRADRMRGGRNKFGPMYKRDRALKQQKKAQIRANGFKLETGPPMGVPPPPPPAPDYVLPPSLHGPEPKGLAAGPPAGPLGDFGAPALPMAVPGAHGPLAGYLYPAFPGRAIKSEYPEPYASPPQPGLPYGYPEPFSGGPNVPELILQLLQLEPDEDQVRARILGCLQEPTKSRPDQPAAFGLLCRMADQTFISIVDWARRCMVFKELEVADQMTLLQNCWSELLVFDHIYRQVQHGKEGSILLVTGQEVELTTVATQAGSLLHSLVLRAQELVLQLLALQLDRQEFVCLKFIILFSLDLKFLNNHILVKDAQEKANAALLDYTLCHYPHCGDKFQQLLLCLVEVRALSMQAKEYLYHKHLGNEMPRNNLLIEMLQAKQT

IC50 [µM]	Compound
2.74	CCC(NC(=O)Nc1nnc(C(F)(F)F)s1)(C(F)(F)F)C(F)(F)F
6.04	O=S1(=O)C=C(Sc2nnc(-c3ccccc3)o2)c2ccccc21
> 11	Cc1ccc(N=C2Nc3ccccc3CS2)cc1
3.97	O=C(CSc1nnc(COc2cccc3cccnc23)o1)N1CCc2ccccc21 [1-(2,3-Dihydro-indol-1-yl)-2-[5-(quinolin-8-yloxymethyl)-[1,3,4]oxadiazol-2-ylsulfanyl]-ethanone]
> 11	CCOc1ccc(S(=O)(=O)n2cnc3cc(C)c(C)cc32)cc1 [1-(4-Ethoxy-benzenesulfonyl)-5,6-dimethyl-1H-benzoimidazole]
5.75	CCOC(=O)C1CCN(c2ncnc3c2cnn3-c2ccc(Cl)cc2)CC1 [1-[1-(4-chlorophenyl)-4-pyrazolo[3,4-d]pyrimidinyl]-4-piperidinecarboxylic acid ethyl ester]
4.19	Nc1nnnn1N=C/C(Br)=C/c1ccccc1 [1-[[(Z)-2-bromanyl-3-phenyl-prop-2-enylidene]amino]-1,2,3,4-tetrazol-5-amine]
4.47	c1ccc(-n2ncc3c(N4CCCCC4)ncnc32)cc1 [1-phenyl-4-(1-piperidinyl)pyrazolo[3,4-d]pyrimidine]
> 1.22	COc1ccc(C(=O)Nc2ccc(C)cn2)c(OC)c1 [2,4-dimethoxy-N-(5-methylpyridin-2-yl)benzamide]
2.14	O=NC1c2cc(S(=O)(=O)N3CCCCC3)ccc2-c2ccc(S(=O)(=O)N3CCCCC3)cc21 [2,7-Bis-(piperidine-1-sulfonyl)-fluoren-9-one oxime]
5.39	c1ccc2nc(-c3nc4ccccc4o3)ccc2c1 [2-(1,3-benzoxazol-2-yl)quinoline]
> 0.00503	CCn1c(C)nc2cc(-c3nc4n(n3)Cc3ccccc3-4)ccc21 [2-(1-ethyl-2-methyl-5-benzimidazolyl)-5H-[1,2,4]triazolo[5,1-a]isoindole]
> 3.67	c1c2c(cc3sc(N4CCCCC4)nc13)OCCO2 [2-(1-piperidinyl)-6,7-dihydro-[1,4]dioxino[2,3-f][1,3]benzothiazole]
0.431	CCCN1C=CC(=C2C(=O)c3ccccc3C2=O)C=C1 [2-(1-propyl-4-pyridinylidene)indene-1,3-dione]
> 3.67	Cn1c(-c2ccco2)nc2cc3ccccc3cc21 [2-(2-furanyl)-3-methylbenzo[f]benzimidazole]

The next lines start with the compound.

Compound	IC50 [µM]
CCc1ccc(-c2nnn(CCC(=O)OC)n2)cc1	6.34
Cn1ncnc2c(=O)n(C)c(=O)nc1-2	0.633
O=C1c2ccccc2C(=O)C1c1ccc2ccccc2n1	4.75
CC(C)OCCCNc1ncnc2c1[nH]c1ccc(F)cc12	6.34
CCCCOC(=O)c1[nH]c2c(c1C)C(=O)CC(c1cc(OC)c(OC)c(OC)c1)C2 (centres undefined)	6.24
[H][C@@]12C[N@@](CCc3c([nH]c4ccccc34)[C@@](C(=O)OC)(c3cc4c(cc3OC)N(C=O)[C@]3([H])[C@]45CC[N@@]4CC=C[C@@](CC)([C@@H](OC(C)=O)[C@]3(O)C(=O)OC)[C@]45[H])C1)C[C@](O)(CC)C2	2.11
Clc1ccc(-c2nnc(NC3=NCCCCC3)o2)cc1	> 3.67
CC(NC(=O)Nc1nnc(C(F)(F)F)s1)(C(F)(F)F)C(F)(F)F [1-(1,1,1,3,3,3-hexafluoro-2-methylpropan-2-yl)-3-[5-(trifluoromethyl)-1,3,4-thiadiazol-2-yl]urea]	5.6
CCCS(=O)(=O)c1nnnn1-c1cccc(OC)c1 [1-(3-methoxyphenyl)-5-(propylsulfonyl)-1H-tetrazole]	7.63
Cc1ccc(-c2nsc3c(N4CCC(C(N)=O)CC4)ncnc23)cc1 [1-(3-p-Tolyl-isothiazolo[4,5-d]pyrimidin-7-yl)-piperidine-4-carboxylic acid amide]	1.53
CC(C)NCC(O)Cn1c2c(c3ccccc31)CCc1c-2cnn1-c1ccccc1 (centres undefined) [1-(3-phenyl-4,5-dihydropyrazolo[4,3-a]carbazol-10-yl)-3-(propan-2-ylamino)-2-propanol]	8.75
Cc1cccc(NC(=O)Nc2ccc(C#N)cc2)n1 [1-(4-cyanophenyl)-3-(6-methyl-2-pyridinyl)urea]	6.32
COc1ccc(O)c(C(=O)CC(=O)c2ccc(F)cc2)c1 [1-(4-fluorophenyl)-3-(2-hydroxy-5-methoxy-phenyl)propane-1,3-dione]	> 11
COc1ccc(-n2ncc3c(N4CCCCC4)ncnc32)cc1 [1-(4-methoxyphenyl)-4-(1-piperidinyl)pyrazolo[3,4-d]pyrimidine]	2
COc1cc(CSc2nnnn2-c2ccc(C)cc2)cc(OC)c1OC [1-(4-methylphenyl)-5-[(3,4,5-trimethoxybenzyl)thio]-1H-tetrazole]	4.52
CCn1nc(-c2ccccc2)nc2c(=O)n(C)c(=O)nc1-2 [1-Ethyl-6-methyl-3-phenyl-1H-pyrimido[5,4-e][1,2,4]triazine-5,7-dione]	3.72
COCCn1c(C)cc(C(=O)CSc2nnc(C)s2)c1C [1-[1-(2-methoxyethyl)-2,5-dimethyl-1H-pyrrol-3-yl]-2-[(5-methyl-1,3,4-thiadiazol-2-yl)thio]ethanone]	3.46
Cc1csc(SCC(=O)c2cc(C)n(Cc3cccs3)c2C)n1 [1-[2,5-dimethyl-1-(2-thenyl)pyrrol-3-yl]-2-[(4-methylthiazol-2-yl)thio]ethanone]	9.88

Compound	IC50 [µM]
Cc1cc(-n2c(C)cc(C(=O)CSc3ncnc4ccccc34)c2C)no1 [1-[2,5-dimethyl-1-(5-methyl-1,2-oxazol-3-yl)pyrrol-3-yl]-2-quinazolin-4-ylsulfanyl-ethanone]	6.03
Cc1ccc(-c2csc3ncnc(Sc4nnc(CN5CCCCCC5=O)o4)c23)cc1 [1-[[5-[5-(4-methylphenyl)thieno[2,3-d]pyrimidin-4-yl]sulfanyl-1,3,4-oxadiazol-2-yl]methyl]azepan-2-one]	7.12
C=CS(=O)(=O)c1ccc(Oc2ccc(S(=O)(=O)C=C)cc2)cc1 [1-ethenylsulfonyl-4-(4-ethenylsulfonylphenoxy)benzene]	5.29
CCn1nc(-c2cccs2)nc2c(=O)n(C)c(=O)nc1-2 [1-ethyl-6-methyl-3-thiophen-2-yl-pyrimido[5,4-e][1,2,4]triazine-5,7-dione]	2.19
Cc1ccc(-c2cn3nc(C)c(C)nc3n2)cc1 [2,3-dimethyl-6-(4-methylphenyl)imidazo[1,2-b][1,2,4]triazine]	4.13
O=C(c1ccccc1)C(CCC(CN1CCOCC1)C(=O)c1ccccc1)CN1CCOCC1 (centres undefined) [2,5-bis(4-morpholinylmethyl)-1,6-diphenylhexane-1,6-dione;hydrochloride]	18
Cc1oc2cc3c(C(=O)OCCN(C)C)c(C)oc3cc2c1C(=O)OCCN(C)C [2,6-Dimethyl-benzo[1,2-b;4,5-b']difuran-3,7-dicarboxylic acid bis-(2-dimethylamino-ethyl) ester]	0.892
c1ccc(-c2cccc(-c3ccccn3)n2)nc1 [2,6-bis(2-pyridinyl)pyridine]	2.81
O=c1c2ccccc2cnn1-c1nc2ccccc2s1 [2-(1,3-benzothiazol-2-yl)-1-phthalazinone]	0.728
COc1ccc(OC)c(NC(=O)CSc2nnnn2-c2ccc3c(c2)OCO3)c1 [2-(1-Benzo[1,3]dioxol-5-yl-1H-tetrazol-5-ylsulfanyl)-N-(2,5-dimethoxy-phenyl)-acetamide]	2.69
CCN1C=CC(=C2C(=O)c3ccccc3C2=O)C=C1 [2-(1-ethyl-4-pyridinylidene)indene-1,3-dione]	1.34
Cc1cnc(NC(=O)COc2ccccc2Cl)s1 [2-(2-chloranylphenoxy)-N-(5-methyl-1,3-thiazol-2-yl)ethanamide]	5.63
c1ccc2c(c1)CCN(c1nc3cc4c(cc3s1)OCCO4)C2 [2-(3,4-dihydro-1H-isoquinolin-2-yl)-6,7-dihydro-[1,4]dioxino[2,3-f][1,3]benzothiazole]	4.35
COc1ccc(CC(=O)Nc2cccc(-c3nnc(-c4cccc(C)c4)o3)c2)cc1OC [2-(3,4-dimethoxyphenyl)-N-[3-[5-(3-methylphenyl)-1,3,4-oxadiazol-2-yl]phenyl]acetamide]	5.9
Nc1cccc(-c2nc3ccc(N)cc3s2)c1 [2-(3-Amino-phenyl)-benzothiazol-6-ylamine]	> 3.67
O=C(CSC1=NCCS1)Nc1ccnc2ccccc12 [2-(4,5-dihydro-1,3-thiazol-2-ylsulfanyl)-N-quinolin-4-yl-ethanamide]	5.95
Cc1nnc(Sc2nc(Sc3nnc(C)s3)nc(N3CCN(C)CC3)n2)s1 [2-(4-Methyl-piperazin-1-yl)-4,6-bis-(5-methyl-[1,3,4]thiadiazol-2-ylsulfanyl)-[1,3,5]triazine]	3.55

Same assay, conditions: inactive by the depositor's call

IC50 [µM]	Compound
16.8	Cc1cc(C)n2nc(SCC(=O)c3cc(C)n(-c4cc(C)on4)c3C)nc2n1 [1-[2,5-dimethyl-1-(5-methyl-1,2-oxazol-3-yl)pyrrol-3-yl]-2-[(5,7-dimethyl-[1,2,4]triazolo[1,5-a]pyrimidin-2-yl)sulfanyl]ethanone]
17.6	CC(=O)N1CCc2cc(S(=O)(=O)NCCC3=CCCCC3)ccc21 [1-acetyl-N-(2-cyclohex-1-en-1-ylethyl)indoline-5-sulfonamide]
19	COc1cc2c(cc1OC)C(C)N(C(=O)c1cc3ccccc3o1)CC2 (centres undefined) [1-benzofuran-2-yl-(6,7-dimethoxy-1-methyl-3,4-dihydro-1H-isoquinolin-2-yl)methanone]
12.2	CC1(C)CC(=O)C2=C(C1)Oc1nc3ccccc3cc1C2C(C#N)C#N (centres undefined) [2-(1-keto-3,3-dimethyl-4,12-dihydro-2H-chromeno[2,3-b]quinolin-12-yl)malononitrile]

More lines, now with the values behind:

Compound	IC50 [µM]
COc1ccc2[nH]c(=O)c3c(c2c1)OC(C)(C)C=C3	16.5
Cc1ccc2[nH]c3c(N4CCN(Cc5ccc6c(c5)OCO6)CC4)ncnc3c2c1	10.2
CCCNc1nc2c(c(=O)n(C)c(=O)n2C)n1Cc1cccc(C)c1 [1,3-Dimethyl-7-(3-methyl-benzyl)-8-propylamino-3,7-dihydro-purine-2,6-dione]	21.5
CC(=O)c1ccc(N2CCN(c3ccc(C(F)(F)F)cn3)CC2)cc1 [1-[4-[4-[5-(trifluoromethyl)-2-pyridinyl]-1-piperazinyl]phenyl]ethanone]	11.4
O=C1c2ccccc2S(=O)(=O)N1Cc1nc2ccccc2s1 [2-(1,3-benzothiazol-2-ylmethyl)-1,1-bis(oxidanylidene)-1,2-benzothiazol-3-one]	10.6
